Source: ChEMBL document CHEMBL1201862, “PubChem BioAssay data set” (2004)
Calls of active or inactive are those of the source.

Assays:
[1] = target: Large T antigen (Simian virus 40, UniProt P03070); assay type: functional, Betapolyomavirus macacae;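 note: Confirmatory-stage PubChem screen for compounds that inhibit SV40 T antigen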
[2] = target: T1, Alkaline phosphatase, tissue-nonspecific isozyme (Homo sapiens, UniProt P05186); test: TNAP enzyme activators, dose response, selectivity assay for mouse IAP activator project, biochemical, TNAP isozyme, mouse IAP uHTS hits (AID 488880); assay type: functional
T1 sequence (P05186 whole entry): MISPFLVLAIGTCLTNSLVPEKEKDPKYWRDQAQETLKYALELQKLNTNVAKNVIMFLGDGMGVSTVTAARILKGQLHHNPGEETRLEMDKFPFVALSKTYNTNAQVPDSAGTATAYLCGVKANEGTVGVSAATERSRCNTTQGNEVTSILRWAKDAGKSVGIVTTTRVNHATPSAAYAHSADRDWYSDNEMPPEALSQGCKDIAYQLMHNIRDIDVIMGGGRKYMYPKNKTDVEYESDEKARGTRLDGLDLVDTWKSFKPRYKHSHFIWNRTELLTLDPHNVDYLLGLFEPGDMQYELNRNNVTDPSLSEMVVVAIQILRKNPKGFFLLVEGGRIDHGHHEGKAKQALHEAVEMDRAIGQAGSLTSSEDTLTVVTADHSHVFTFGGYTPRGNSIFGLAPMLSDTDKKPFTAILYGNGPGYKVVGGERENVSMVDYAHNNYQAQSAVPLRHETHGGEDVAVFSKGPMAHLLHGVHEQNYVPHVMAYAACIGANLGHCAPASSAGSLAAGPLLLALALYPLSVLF

[3] = target: Intestinal-type alkaline phosphatase (Homo sapiens, UniProt P09923); test: activation of human intestinal alkaline phosphatase – biochemical, dose response (AID 488873); assay type: functional
Intestinal-type alkaline phosphatase (Homo sapiens, UniProt P09923), sequence (P09923 whole entry): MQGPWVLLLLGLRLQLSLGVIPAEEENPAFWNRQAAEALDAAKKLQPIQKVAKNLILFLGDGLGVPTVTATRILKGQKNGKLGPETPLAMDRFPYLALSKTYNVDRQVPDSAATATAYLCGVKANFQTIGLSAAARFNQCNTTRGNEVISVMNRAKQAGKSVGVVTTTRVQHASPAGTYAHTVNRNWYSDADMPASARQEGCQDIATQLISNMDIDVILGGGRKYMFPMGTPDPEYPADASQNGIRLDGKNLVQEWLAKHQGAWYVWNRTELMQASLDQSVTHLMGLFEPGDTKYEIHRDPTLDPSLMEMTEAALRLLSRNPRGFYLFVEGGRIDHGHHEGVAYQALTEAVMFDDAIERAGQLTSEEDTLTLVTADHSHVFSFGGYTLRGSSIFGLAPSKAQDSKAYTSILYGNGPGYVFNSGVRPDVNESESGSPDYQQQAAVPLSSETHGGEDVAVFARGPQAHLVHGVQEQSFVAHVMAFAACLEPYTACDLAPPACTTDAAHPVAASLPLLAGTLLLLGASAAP

[4] = target: Intestinal-type alkaline phosphatase (Mus musculus, UniProt P24822); test: mouse intestinal alkaline phosphatase activators, dose response, biochemical, luminescence, uHTS hits (AID 488783); assay type: functional
Intestinal-type alkaline phosphatase (Mus musculus, UniProt P24822), sequence (P24822 whole entry): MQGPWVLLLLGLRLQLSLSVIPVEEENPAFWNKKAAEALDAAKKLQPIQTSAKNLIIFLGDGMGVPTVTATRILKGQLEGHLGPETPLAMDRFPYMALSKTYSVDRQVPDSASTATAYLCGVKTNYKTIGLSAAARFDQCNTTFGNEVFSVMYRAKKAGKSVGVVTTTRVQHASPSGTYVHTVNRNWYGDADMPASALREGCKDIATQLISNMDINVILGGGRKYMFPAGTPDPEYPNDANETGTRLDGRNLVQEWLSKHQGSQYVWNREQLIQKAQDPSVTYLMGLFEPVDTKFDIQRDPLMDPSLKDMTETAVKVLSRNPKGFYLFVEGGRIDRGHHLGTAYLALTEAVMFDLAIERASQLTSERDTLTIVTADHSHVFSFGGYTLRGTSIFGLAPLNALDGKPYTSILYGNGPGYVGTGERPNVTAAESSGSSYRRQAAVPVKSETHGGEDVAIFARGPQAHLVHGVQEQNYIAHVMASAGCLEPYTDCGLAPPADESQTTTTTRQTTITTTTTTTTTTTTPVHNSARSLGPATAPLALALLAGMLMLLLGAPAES

[5] = target: T2, Hexokinase HKDC1 (Homo sapiens, UniProt Q2TB90); test: HKDC1 hexokinase activators, dose response, biochemical, W721R variant (AID 504730); assay type: functional
T2 sequence (Q2TB90 whole entry): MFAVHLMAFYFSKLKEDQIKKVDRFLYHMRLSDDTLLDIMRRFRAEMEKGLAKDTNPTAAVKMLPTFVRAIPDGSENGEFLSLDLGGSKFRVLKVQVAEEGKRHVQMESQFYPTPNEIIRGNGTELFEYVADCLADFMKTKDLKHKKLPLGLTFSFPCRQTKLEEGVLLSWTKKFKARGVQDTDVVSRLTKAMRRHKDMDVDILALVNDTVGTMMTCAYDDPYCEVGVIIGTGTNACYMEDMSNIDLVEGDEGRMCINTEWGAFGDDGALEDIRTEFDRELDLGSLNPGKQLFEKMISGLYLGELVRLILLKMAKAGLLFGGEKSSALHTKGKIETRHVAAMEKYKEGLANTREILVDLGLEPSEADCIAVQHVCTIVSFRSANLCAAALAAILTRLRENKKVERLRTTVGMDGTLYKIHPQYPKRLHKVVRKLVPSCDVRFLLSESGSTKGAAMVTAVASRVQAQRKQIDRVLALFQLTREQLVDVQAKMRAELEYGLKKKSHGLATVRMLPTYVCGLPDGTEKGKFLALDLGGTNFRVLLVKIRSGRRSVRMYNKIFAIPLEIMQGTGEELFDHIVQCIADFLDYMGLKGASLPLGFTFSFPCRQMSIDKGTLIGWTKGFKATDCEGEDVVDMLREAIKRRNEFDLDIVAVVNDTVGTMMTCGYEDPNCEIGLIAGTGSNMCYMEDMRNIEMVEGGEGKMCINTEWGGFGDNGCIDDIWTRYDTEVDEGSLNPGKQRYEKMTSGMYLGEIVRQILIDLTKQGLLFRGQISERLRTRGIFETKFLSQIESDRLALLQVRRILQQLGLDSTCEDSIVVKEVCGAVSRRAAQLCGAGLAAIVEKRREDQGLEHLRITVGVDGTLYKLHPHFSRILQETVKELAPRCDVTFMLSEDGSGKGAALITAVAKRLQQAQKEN

[6] = target: DNA dC->dU-editing enzyme APOBEC-3G (Homo sapiens, UniProt Q9HC16); test: Dose Response confirmation of small molecule APOBEC3G DNA Deaminase Inhibitors via a fluorescence-based single-stranded DNA deaminase assay. [Related pubchem assays (depositor defined):AID493012, AID493028]; assay type: functional
DNA dC->dU-editing enzyme APOBEC-3G, sequence (Q9HC16 whole entry): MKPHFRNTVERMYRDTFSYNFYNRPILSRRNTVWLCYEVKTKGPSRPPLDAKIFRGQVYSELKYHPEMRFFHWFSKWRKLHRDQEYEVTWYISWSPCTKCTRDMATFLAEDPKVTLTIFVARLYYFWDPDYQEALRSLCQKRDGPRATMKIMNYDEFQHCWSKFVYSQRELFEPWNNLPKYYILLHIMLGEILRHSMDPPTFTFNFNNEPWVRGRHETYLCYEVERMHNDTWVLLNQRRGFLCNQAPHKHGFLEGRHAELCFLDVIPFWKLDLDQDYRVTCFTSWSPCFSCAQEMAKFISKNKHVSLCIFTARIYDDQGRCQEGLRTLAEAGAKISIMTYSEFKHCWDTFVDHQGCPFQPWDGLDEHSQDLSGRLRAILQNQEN

[7] = target: T3, Polyadenylate-binding protein 1 (Homo sapiens, UniProt P11940); test: PABP1 MLLE–PAM2 binding inhibitor potency, dose response, biochemical, fluorescence polarization, FITC-PAM2 peptide (AID 602259); assay type: functional; conditions: read-out: IC50_Mean
T3 sequence (P11940 whole entry): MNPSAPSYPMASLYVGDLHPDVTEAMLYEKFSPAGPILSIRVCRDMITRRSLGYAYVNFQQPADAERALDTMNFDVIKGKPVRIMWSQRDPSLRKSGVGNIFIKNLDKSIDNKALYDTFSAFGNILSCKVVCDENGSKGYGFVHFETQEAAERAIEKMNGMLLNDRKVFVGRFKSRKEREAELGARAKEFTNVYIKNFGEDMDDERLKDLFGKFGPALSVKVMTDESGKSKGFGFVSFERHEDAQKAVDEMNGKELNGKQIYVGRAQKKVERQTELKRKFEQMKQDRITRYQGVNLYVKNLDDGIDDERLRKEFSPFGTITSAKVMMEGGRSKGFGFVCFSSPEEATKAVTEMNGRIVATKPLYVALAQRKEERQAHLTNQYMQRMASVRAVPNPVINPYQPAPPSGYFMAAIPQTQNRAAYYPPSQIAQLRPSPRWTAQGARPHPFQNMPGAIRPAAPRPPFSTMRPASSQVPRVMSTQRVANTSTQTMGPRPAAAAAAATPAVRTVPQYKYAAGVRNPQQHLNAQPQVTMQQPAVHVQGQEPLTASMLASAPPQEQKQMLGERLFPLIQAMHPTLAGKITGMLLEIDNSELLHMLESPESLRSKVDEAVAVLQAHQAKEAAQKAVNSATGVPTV

[8] = target: T4, Hexokinase-1 (Homo sapiens, UniProt P19367); test: hexokinase 1 activators, dose response, selectivity assay for HKDC1 activator project, biochemical (AID 504762); assay type: functional
T4 sequence (P19367 whole entry): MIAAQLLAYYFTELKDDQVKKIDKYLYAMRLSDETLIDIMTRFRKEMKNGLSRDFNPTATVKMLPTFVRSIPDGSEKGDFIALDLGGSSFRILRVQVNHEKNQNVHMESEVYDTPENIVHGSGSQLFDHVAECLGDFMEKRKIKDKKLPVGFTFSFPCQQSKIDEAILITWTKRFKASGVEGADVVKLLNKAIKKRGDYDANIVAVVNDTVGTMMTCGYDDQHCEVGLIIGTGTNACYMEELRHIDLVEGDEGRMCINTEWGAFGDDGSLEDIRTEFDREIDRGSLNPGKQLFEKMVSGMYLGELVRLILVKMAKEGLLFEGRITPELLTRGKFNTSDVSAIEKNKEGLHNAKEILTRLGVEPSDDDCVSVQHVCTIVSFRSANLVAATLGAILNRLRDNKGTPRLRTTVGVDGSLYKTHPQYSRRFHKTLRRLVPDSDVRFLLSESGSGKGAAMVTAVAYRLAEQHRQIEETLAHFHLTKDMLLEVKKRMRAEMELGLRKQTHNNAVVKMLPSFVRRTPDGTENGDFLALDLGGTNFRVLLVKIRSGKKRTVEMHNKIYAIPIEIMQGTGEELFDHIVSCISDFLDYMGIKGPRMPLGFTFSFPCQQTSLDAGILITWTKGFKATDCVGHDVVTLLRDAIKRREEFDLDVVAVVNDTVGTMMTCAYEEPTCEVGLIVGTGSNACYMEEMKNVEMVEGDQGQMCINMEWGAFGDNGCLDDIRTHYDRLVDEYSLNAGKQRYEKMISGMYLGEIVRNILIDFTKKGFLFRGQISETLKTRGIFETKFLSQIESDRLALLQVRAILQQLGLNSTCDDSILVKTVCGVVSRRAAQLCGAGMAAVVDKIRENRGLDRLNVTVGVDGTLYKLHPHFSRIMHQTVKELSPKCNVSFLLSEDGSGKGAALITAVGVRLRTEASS

[9] = target: Eukaryotic translation initiation factor 4E (Mus musculus, UniProt P63073); test: eIF4E–eIF4G protein interaction inhibitors, dose response, biochemical, TR-FRET (AID 855); assay type: functional;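 note: potency for disrupting eIF4E binding to eIF4GI seen as loss of FRET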
Eukaryotic translation initiation factor 4E, sequence (P63073 whole entry): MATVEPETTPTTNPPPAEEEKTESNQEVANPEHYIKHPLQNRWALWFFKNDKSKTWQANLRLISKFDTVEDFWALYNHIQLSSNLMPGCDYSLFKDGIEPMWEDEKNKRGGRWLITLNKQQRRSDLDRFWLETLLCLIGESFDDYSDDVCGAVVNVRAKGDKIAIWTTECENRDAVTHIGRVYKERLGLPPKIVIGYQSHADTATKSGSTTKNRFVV

[10] = target: T3, Polyadenylate-binding protein 1; test: PABP1 MLLE–PAM2 interaction inhibitors, dose response, miRNA deadenylation inhibitor project, biochemical, fluorescence polarization, Cy5-PAM2 peptide, secondary (AID 602260); assay type: functional; conditions: read-out: IC50_Mean

Large T antigen, sequence (P03070 whole entry): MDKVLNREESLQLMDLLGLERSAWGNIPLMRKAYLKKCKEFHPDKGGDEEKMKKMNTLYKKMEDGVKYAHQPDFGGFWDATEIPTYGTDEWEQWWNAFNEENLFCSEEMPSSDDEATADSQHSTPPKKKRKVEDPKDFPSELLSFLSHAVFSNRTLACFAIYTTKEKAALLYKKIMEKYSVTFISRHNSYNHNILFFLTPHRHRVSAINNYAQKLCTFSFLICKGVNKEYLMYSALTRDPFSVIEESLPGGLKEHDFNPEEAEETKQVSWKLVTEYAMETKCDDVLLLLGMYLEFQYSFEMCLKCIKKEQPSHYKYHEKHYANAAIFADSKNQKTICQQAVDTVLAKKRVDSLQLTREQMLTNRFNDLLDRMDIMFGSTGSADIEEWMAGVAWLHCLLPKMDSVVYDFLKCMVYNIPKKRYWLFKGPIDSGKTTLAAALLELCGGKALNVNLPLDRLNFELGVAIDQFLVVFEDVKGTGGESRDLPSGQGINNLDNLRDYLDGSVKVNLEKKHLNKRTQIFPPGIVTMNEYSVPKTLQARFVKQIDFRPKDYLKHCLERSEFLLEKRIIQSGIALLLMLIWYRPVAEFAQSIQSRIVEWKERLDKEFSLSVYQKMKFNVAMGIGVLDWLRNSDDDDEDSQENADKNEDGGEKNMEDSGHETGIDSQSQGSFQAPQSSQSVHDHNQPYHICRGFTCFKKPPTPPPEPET

Row | Compound | IC50 [1] | EC50 [2] | EC50 [3] | EC50 [4] | EC50 [5] | IC50 [6] | IC50 [7] | EC50 [8] | IC50 [9] | IC50 [10]
1 | N#C/C(=C\c1coc2ccc(O)cc2c1=O)C(=O)/N=c1\[nH]c2ccccc2s1 | 15.9 µM (active) | 88.5 µM (active) | 81.5 µM (active) | 85 µM (active) | – | – | – | – | – | –
2 | CCOC(=O)c1c(NC(=O)CSc2nnnn2-c2ccc(OC)cc2)sc(C)c1C | – | – | – | – | > 80 µM (inactive) | 54.7 µM (active) | > 66 µM (inactive) | 37.4 µM (inactive) | > 64 µM (inactive) | > 66 µM (inactive)
